The source of these data is patent US12543733B2 (priority 2020, dated 2026).

Each structure is given as a SMILES string. In brackets after ≈: the same amount, converted by molar mass. Counter-ions that a name gives are not always drawn. Like-named read-outs stand apart in the source and are kept apart here.

The LC50 is the concentration lethal to half of the exposed cells or organisms.

Data set [1] has as its system Sitophilus oryzae. In words: Fumigation assay (fumigant toxicity) against adults of stored-product insects. Conditions: for LC50: Sitophilus oryzae. The class given is in vivo. How it is done:
(§1) Culturing of Insects: The stored product insect rice weevil (S. oryzae L.) was reared on whole wheat and the rust-red flour beetle (T. castaneum Herbst.) was reared on wheat flour with 5% yeast. Rice weevil and flour beetle were maintained at 23.6±2.5° C., 70% relative humidity and a photoperiod of 12:12 (Light:Dark). Corcyra cephalonica were reared on medium consisting of finely ground rice and maize flour in the ratio 1:1 (w/w) under laboratory conditions (27±1° C., 75±5% R.H. with a 12:12 h light:dark cycle.

The subject of data set [2] is Tribolium castaneum. The description is as above. Conditions: for LC50: Tribolium castaneum. The data set is classed as in vivo. As for the experimental part:
as §1

In data set [3] the test system is housefly. The conditions noted are these: cited from earlier work.
The subject of data set [4] is C. arietinum plants. In words: Plant growth observation after seed treatment. The data set is classed as in vivo.
For data set [5], the system named is Corcyra cephalonica. Put plainly: Fumigation assay (fumigant toxicity) against adults of stored-product insects. The data set is classed as in vivo. Conditions: C. cephalonica adults, mortality after 24 hours of exposure. As for the experimental part:
as §1

Data set [6] relates to V. radiata plants. Put plainly: Plant growth observation after seed treatment. The class given is in vivo.
Data set [7] has as its system stored grain insect pests. Put plainly: Fumigation assay, range over the tested species. As for the experimental part:
Measuring insecticidal activity of Isosecotanapartholide and Lemon grass oil (Cymbopogon flexuosus) by Fumigation Assay: The insecticidal activity of Isosecotanapartholide and lemon grass oil was assessed by fumigation assay against adults of stored-product insects (Corcyra cephalonica, Sitophilus oryzae and Tribolium castaneum). For each treatment, 50 individuals were tested for S. oryzae and T. castaneum; particularly adults were released into 0.85 L desiccators that served as the fumigation chambers. In each desiccator, a Whatman No. 1 filter circle (diameter: 9 cm) was placed to serve as an evaporating surface for injecting active extract. […] Five replicates were used for each dosage and LC50 was determined from dose response data using probit analysis. Insect mortality for isosecotanapartholide was recorded after 24 hours of exposure. Insects were considered dead when no leg or antennal movements were observed. Morality rate was calculated using Abbott formula for natural mortality in untreated (Abbott, 1925, Journal of Economic Entomology, 18, 265-267).
For each time point, 20 adults stored grain pests were used and determined percentage mortality.

Data set [8] has as its system V. radiata (Green gram) seeds. In words: Seed germination test. Conditions: for % germination (Mean ± SE): Green gram. The data set is classed as in vivo. As for the experimental part:
(§2) In order to assess the effect of isosecotanapartholide on plant growth and seed germination, particularly 50 seeds of Chickpea and Green gram sample were treated with isosecotanapartholide at 50 and 100 ppm and germination tests were done at […] and 72 hours of exposure treatments. From each sample, twenty grains seeds were randomly selected from the treatment and soaked for about 30 minutes in distilled water, and kept on filter paper (paper towel) in a petri dish, moistened everyday with distilled water, and allowed to germinate at room temperature (25±2° C.). After 48 and 72 hours, germinated seeds were counted and percentage germination was determined as in Radwan et al. 2019 (Annals of Agricultural Sciences, 64(2), 183-187). Three replications of each were made for both treatment and control.
(§3) From each sample, twenty grains seeds were randomly selected from the treatment and soaked for about 30 minutes in distilled water, and kept on filter paper (paper towel) in a petri dish, moistened everyday with distilled water, and allowed to germinate at room temperature (25±2° C.). After 48 and 72 hours, germinated seeds were counted and percentage germination was determined as in Radwan et al. 2019 (Annals of Agricultural Sciences, 64(2), 183-187). Three replications of each were made for both treatment and control.

Data set [9] concerns C. arietinum (Chick pea) seeds. Put plainly: Seed germination test. The conditions noted are these: for % germination (Mean ± SE): Chick pea. The class given is in vivo. As for the experimental part:
as §2, §3

The subject of data set [10] is adults of S. oryzae. The conditions noted are these: 24 hours of exposure time; cited from earlier work.
The mark [11] stands for this setting: comparison with other fumigants, fumigation bioassay, read-out: LC50.
[12] abbreviates: comparison with other fumigants, fumigation bioassay.
Where [13] appears, read: in comparison with control, observed for 2 weeks.

`CC12CCC(CC1)C(C)(C)O2` [1,8 Cineole]: the LC50 in data set [1] (setting [11]) turned out to be 31 ng/mL (≈ 0.201 µM); in data set [2] (setting [11]) it was 47 ng/mL (≈ 0.305 µM). Further, in data set [3], the LD50 is recorded as 118 μg/fly.
`Cc1ccc(C(C)C)cc1O` [Carvacol]: the values for the LC50 in data set [1] (setting [12]) and in [2] (setting [12]) were 14.2 ng/mL (≈ 0.0945 µM) and 17.0 ng/mL (≈ 0.113 µM), respectively.
As for `CCOC=O` [Ethyl formate], the LC50 worked out at 0.72 ng/mL in data set [1] (setting [11]) and 1.12 ng/mL in [2] (setting [11]).
In the case of `C=C1C(=O)O[C@H](C2=C(C)[C@@H](O)CC2=O)[C@H]1CCC(C)=O` [Isosecotanapartholide, (4S,5S)-5-[(3S)-3-hydroxy-2methyl-5-oxocyclopent-1-en-1-yl]-3-methylidene-4-(3oxobutyl)dihydrofuran-2(3H)-one], the “response on plant growth” value is reported as “comparable to control” in [4] (50 ppm, FIG. 4 (A)) and “comparable to control” in [6] (50 ppm, FIG. 4 (B)). The “adverse effect on plant growth” value in data set [4] (setting [13]) and in data set [6] (setting [13]) was “did not cause any adverse effect” throughout. The LC90 in [1] (S. oryzae adults, fumigant toxicity, mortality after 24 hours of exposure) amounted to 3.274 ng/mL (≈ 0.0118 µM); in data set [5] it was 3.296 ng/mL (≈ 0.0118 µM); in [2] (T. castaneum adults, fumigant toxicity, mortality after 24 hours of exposure), 3.946 ng/mL (≈ 0.0142 µM). Besides, the LC50 in data set [1] (S. oryzae adults, fumigant toxicity, mortality after 24 hours of exposure, read-out: LC50) is 1.82 ng/mL (≈ 0.00654 µM); in data set [1] (setting [11]), 1.82 ng/mL (≈ 0.00654 µM); in [5] (Corcyra cephalonica), 1.83 ng/mL (≈ 0.00658 µM); in [2] (T. castaneum adults, fumigant toxicity, mortality after 24 hours of exposure, read-out: LC50), 2.19 ng/mL (≈ 0.00787 µM); in [2] (setting [11]) it was 2.19 ng/mL (≈ 0.00787 µM). In data set [7], this molecule registered an LC50 values of 1.7 to 2.2 ng/mL. This molecule also registered an LC90 range in data set [7] of 3.2 to 4.0 ng/mL. The “% germination (Mean ± SE)” value in [8] (50 PPM, 24 hours) stood at 93.33 ± 1.33%; in data set [8] (50 PPM, 72 hours) it was 94.67 ± 1.33%; in data set [8] (100 PPM, 24 hours), 96.00 ± 2.30%; in data set [8] (100 PPM, 72 hours), 96.00 ± 2.30%; in [9] (50 PPM, 24 hours), 96.00 ± 2.30%; in data set [9] (50 PPM, 72 hours), 97.33 ± 1.33%. Further, the “% germination (Mean ± SE)” value in [9] (100 PPM, 24 hours) is 94.67 ± 1.33%; in data set [9] (100 PPM, 72 hours), 96.00 ± 2.30%. For the same molecule, the “adverse effect on seed germination” value in [8] (V. radiata, in comparison with control) is given as “did not cause any adverse effect”; in data set [9] (C. arietinum, in comparison with control) it was “did not cause any adverse effect”.
Take `C=CC(C)(O)CCC=C(C)C` (centres unmarked) [Linalool]: the LC50 worked out at 39.2 ng/mL (≈ 0.254 µM) in data set [1] (setting [11]) and 49.8 ng/mL (≈ 0.323 µM) in [2] (setting [11]).
Regarding `CBr` [Methyl bromide], the LC50 in data set [1] (setting [11]) amounted to 3.6 ng/mL; in [2] (setting [11]), 8.4 ng/mL.
On to `P` [Phosphine], for which the figures for the LC50 in data set [1] (setting [12]) and in data set [2] (setting [12]) were 7.8 ng/mL (≈ 0.229 µM) and 9.8 ng/mL (≈ 0.288 µM), respectively.
With `C=CCN=C=S` [allylisothiocyanate], the concentration found toxic result in data set [10] is “less than 6.3 μl/l”.
